Target: human P2X3 receptor (Homo sapiens (Human), UniProt P56373)
Experiment: Evaluation of human P2X3 receptor inhibitory activity (Fluo-3 calcium fluorescence, FDSS 3000, ATP stimulation);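 note: stimulus was 50 nM ATP with fluorescence followed for 3 min, and the response per well was peak post-ATP fluorescence divided by the reading at measurement start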
Assay type: cell-based
Details: human P2X3 receptor, Test Example 1

Chain of human P2X3 receptor (P56373 whole entry): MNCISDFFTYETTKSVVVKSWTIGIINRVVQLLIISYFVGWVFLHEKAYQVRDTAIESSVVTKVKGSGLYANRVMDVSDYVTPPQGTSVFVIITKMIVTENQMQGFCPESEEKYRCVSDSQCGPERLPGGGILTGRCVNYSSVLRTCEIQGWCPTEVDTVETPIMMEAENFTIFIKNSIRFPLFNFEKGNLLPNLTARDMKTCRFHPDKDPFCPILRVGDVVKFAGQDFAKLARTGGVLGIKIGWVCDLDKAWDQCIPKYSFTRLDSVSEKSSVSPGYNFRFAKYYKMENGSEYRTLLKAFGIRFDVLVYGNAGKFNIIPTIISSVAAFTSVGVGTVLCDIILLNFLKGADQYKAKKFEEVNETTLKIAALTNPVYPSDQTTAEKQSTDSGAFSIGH

| SMILES | IC50 |
| --- | --- |
| O=c1[nH]/c(=N\c2ccc(Oc3ccon3)cc2)n(Cc2ccc(F)cc2)c(=O)n1CCCOC1CCCCO1 (stereo not shown) [Compound I-2394] | 0.021 µM |
| CCn1c(=O)[nH]/c(=N\c2ccc(Oc3ccc(C#N)cn3)cc2)n(Cc2ccc(C)cc2)c1=O [Compound I-2395] | 0.004 µM |
| CC1(Cn2c(=O)[nH]/c(=N\c3ccc(Oc4ccon4)cc3)n(Cc3ccc(F)cc3)c2=O)COC(C)(C)OC1 [Compound I-2396] | 0.006 µM |
| O=c1[nH]/c(=N\c2ccc(Oc3ccon3)cc2)n(Cc2ccc(F)cc2)c(=O)n1CCCO [Compound I-2397] | 0.039 µM |
| CCn1c(=O)[nH]/c(=N\c2ccc(Oc3ccc(C(N)=O)cn3)cc2)n(Cc2ccc(C)cc2)c1=O [Compound I-2398] | 0.003 µM |
| CC(CO)(CO)Cn1c(=O)[nH]/c(=N\c2ccc(Oc3ccon3)cc2)n(Cc2ccc(F)cc2)c1=O [Compound I-2399] | 0.02 µM |
| CCn1c(=O)[nH]/c(=N\c2ccc(Oc3ccc(C(=O)O)cn3)cc2)n(Cc2ccc(C)cc2)c1=O [Compound I-2400] | 0.006 µM |
| Cc1ccc(Cn2c(=O)n(C)c(=O)[nH]/c2=N\c2ccc(Oc3ccc(C(=O)O)cn3)cc2)cc1 [Compound I-2401] | 0.018 µM |
| COC(=O)c1ccc(Oc2ccc(/N=c3\[nH]c(=O)n(C)c(=O)n3Cc3ccc(Cl)cc3)cc2)cn1 [Compound I-2402] | 0.003 µM |
| Cc1ccc(Cn2c(=O)n(C)c(=O)[nH]/c2=N\c2ccc(Oc3nccc(C(=O)O)n3)cc2)cc1 [Compound I-2403] | 0.061 µM |
| CCn1c(=O)[nH]/c(=N\c2ccc(Oc3nccc(C(=O)O)n3)cc2)n(Cc2ccc(C)cc2)c1=O [Compound I-2404] | 0.016 µM |
| Cn1c(=O)[nH]/c(=N\c2ccc(Oc3nccc(C(=O)O)n3)cc2)n(Cc2ccc(Cl)cc2)c1=O [Compound I-2405] | 0.062 µM |
| Cn1c(=O)[nH]/c(=N\c2ccc(Oc3ccc(C(N)=O)nc3)cc2)n(Cc2ccc(Cl)cc2)c1=O [Compound I-2406] | 0.01 µM |
| Cn1c(=O)[nH]/c(=N\c2ccc(Oc3ccc(C(N)=O)cn3)cc2)n(Cc2ccc(Cl)cc2)c1=O [Compound I-2407] | 0.009 µM |
| O=c1[nH]/c(=N\c2ccc(Oc3ccon3)cc2)n(Cc2ccc(Cl)cc2)c(=O)n1C[C@@H](O)CO [Compound I-2408] | 0.014 µM |
| Cn1c(=O)[nH]/c(=N\c2ccc(Oc3ncc(C(=O)O)s3)cc2)n(Cc2ccc(Cl)cc2)c1=O [Compound I-2409] | 0.014 µM |
| Cn1c(=O)[nH]/c(=N\c2ccc(Oc3nc(C(=O)O)cs3)cc2)n(Cc2ccc(Cl)cc2)c1=O [Compound I-2410] | 0.036 µM |
| Cn1c(=O)[nH]/c(=N\c2ccc(Oc3cc(C(=O)O)n[nH]3)cc2)n(Cc2ccc(Cl)cc2)c1=O [Compound I-2411] | 0.166 µM |
| Cn1ccc(Oc2ccc(/N=c3\[nH]c(=O)n(C[C@H](O)CO)c(=O)n3Cc3ccc(Cl)cc3)cc2)n1 [Compound I-2412] | 0.084 µM |
| Cn1ccc(Oc2ccc(/N=c3\[nH]c(=O)n(CCCO)c(=O)n3Cc3ccc(Cl)cc3)cc2)n1 [Compound I-2413] | 0.036 µM |
| Cn1c(=O)[nH]/c(=N\c2ccc(Oc3ncc(C(N)=O)s3)cc2)n(Cc2ccc(Cl)cc2)c1=O [Compound I-2414] | 0.003 µM |
| Cn1c(=O)[nH]/c(=N\c2ccc(Oc3nc(C(N)=O)cs3)cc2)n(Cc2ccc(Cl)cc2)c1=O [Compound I-2415] | 0.009 µM |
| Cn1c(=O)[nH]/c(=N\c2ccc(Oc3cc(C(N)=O)n[nH]3)cc2)n(Cc2ccc(Cl)cc2)c1=O [Compound I-2416] | 0.054 µM |

| SMILES | IC50 |
| --- | --- |
| CCn1c(=O)[nH]/c(=N\c2ccc(Oc3cc(C(N)=O)n[nH]3)cc2)n(Cc2ccc(Cl)cc2)c1=O [Compound I-2417] | 0.041 µM |
| O=c1[nH]/c(=N\c2ccc(Oc3ncccn3)cc2)n(Cc2ccc(Cl)cc2)c(=O)n1C[C@H](O)CO [Compound I-2418] | 0.012 µM |
| O=c1[nH]/c(=N\c2ccc(Oc3cncc(F)c3)cc2)n(Cc2ccc(Cl)cc2)c(=O)n1CCO [Compound I-2420] | 0.009 µM |
| CCn1c(=O)[nH]/c(=N\c2ccc(Oc3cccc(C(=O)O)n3)c(OC)c2)n(Cc2ccc(Cl)cc2)c1=O [Compound I-2423] | 0.007 µM |
| COc1cc(/N=c2\[nH]c(=O)n(C)c(=O)n2Cc2ccc(Cl)cc2)ccc1Oc1cccc(C(=O)O)n1 [Compound I-2424] | 0.02 µM |
| CCn1c(=O)[nH]/c(=N\c2ccc(Oc3ccnc(NC(=O)NC)c3)cc2)n(Cc2ccc(Cl)cc2)c1=O [Compound I-2425] | 0.002 µM |
| CCn1c(=O)[nH]/c(=N\c2ccc(Oc3ccc(NC(=O)NC)nc3)cc2)n(Cc2ccc(Cl)cc2)c1=O [Compound I-2426] | 0.011 µM |
| CCn1c(=O)[nH]/c(=N\c2ccc(Oc3cnc(C#N)cn3)cc2)n(Cc2ccc(Cl)cc2)c1=O [Compound I-2427] | 0.002 µM |
| CC(=O)Nc1ccc(Oc2ccc(/N=c3\[nH]c(=O)n(C)c(=O)n3Cc3ccc(Cl)cc3)cc2)cn1 [Compound I-2429] | 0.005 µM |
| CC(=O)Nc1cc(Oc2ccc(/N=c3\[nH]c(=O)[nH]c(=O)n3Cc3ccc(Cl)cc3)cc2)ccn1 [Compound I-2430] | 0.048 µM |
| CC(=O)Nc1cc(Oc2ccc(/N=c3\[nH]c(=O)n(C)c(=O)n3Cc3ccc(Cl)cc3)cc2)ccn1 [Compound I-2431] | 0.018 µM |
| CCn1c(=O)[nH]/c(=N\c2ccc(Oc3ccnc(C(=O)NC)c3)c(F)c2)n(Cc2ccc(Cl)cc2)c1=O [Compound I-2432] | 0.002 µM |
| CNC(=O)c1cc(Oc2ccc(/N=c3\[nH]c(=O)n(C)c(=O)n3Cc3ccc(Cl)cc3)cc2F)ccn1 [Compound I-2433] | 0.005 µM |
| CCOC(=O)CCn1c(=O)[nH]/c(=N\c2ccc(Oc3ccon3)cc2)n(Cc2ccc(Cl)cc2)c1=O [Compound I-2434] | 0.004 µM |
| O=C(O)CCn1c(=O)[nH]/c(=N\c2ccc(Oc3ccon3)cc2)n(Cc2ccc(Cl)cc2)c1=O [Compound I-2435] | 0.037 µM |
| O=c1[nH]/c(=N\c2ccc(Oc3cccc(F)n3)cc2)n(Cc2ccc(Cl)cc2)c(=O)n1C[C@H](O)CO [Compound I-2436] | 0.004 µM |
| O=c1[nH]/c(=N\c2ccc(Oc3nccs3)cc2)n(Cc2ccc(Cl)cc2)c(=O)n1CC(CO)CO [Compound I-2437] | 0.006 µM |
| O=c1[nH]/c(=N\c2ccc(Oc3ccon3)c(F)c2)n(Cc2ccc(Cl)cc2)c(=O)n1CCO [Compound I-2438] | 0.007 µM |
| O=c1[nH]/c(=N\c2ccc(Oc3ccon3)c(F)c2)n(Cc2ccc(Cl)cc2)c(=O)n1CC(CO)CO [Compound I-2439] | 0.004 µM |
| O=c1[nH]/c(=N\c2ccc(Oc3ccon3)c(F)c2)n(Cc2ccc(Cl)cc2)c(=O)n1C[C@H](O)CO [Compound I-2440] | 0.005 µM |
| CCn1c(=O)[nH]/c(=N\c2ccc(Oc3cccc(Cl)n3)cc2)n(Cc2ccc(Cl)cc2)c1=O [Compound I-2441] | 0.01 µM |
| Cn1c(=O)[nH]/c(=N\c2ccc(Oc3ccc(C(=O)O)cn3)cc2)n(Cc2ccc(Cl)cc2)c1=O [Compound I-2442] | 0.018 µM |
| NC(=O)CCn1c(=O)[nH]/c(=N\c2ccc(Oc3ccon3)cc2)n(Cc2ccc(Cl)cc2)c1=O [Compound I-2443] | 0.024 µM |

| SMILES | IC50 |
| --- | --- |
| CCn1c(=O)[nH]/c(=N\c2ccc(Oc3cc(C(=O)O)ncn3)cc2)n(Cc2ccc(C)cc2)c1=O [Compound I-2444] | 0.008 µM |
| Cc1ccc(Cn2c(=O)n(C)c(=O)[nH]/c2=N\c2ccc(Oc3cc(C(=O)O)ncn3)cc2)cc1 [Compound I-2445] | 0.013 µM |
| Cn1c(=O)[nH]/c(=N\c2ccc(Oc3cccc(C#N)n3)cc2)n(C[C@H]2CC[C@H](C)CC2)c1=O [Compound I-2446] | 0.001 µM |
| Cn1c(=O)[nH]/c(=N\c2ccc(Oc3cc(C(=O)O)ncn3)cc2)n(Cc2ccc(Cl)cc2)c1=O [Compound I-2447] | 0.01 µM |
| O=c1[nH]/c(=N\c2ccc(Oc3nccs3)cc2)n(Cc2ccc(Cl)cc2)c(=O)n1CC(O)CO (stereo not shown) [Compound I-2448] | 0.011 µM |
| O=c1[nH]/c(=N\c2ccc(Oc3ccc4[nH]cnc4c3)cc2)n(Cc2ccc(Cl)cc2)c(=O)n1CCO [Compound I-2449] | 0.009 µM |
| CCn1c(=O)[nH]/c(=N\c2ccc(Oc3nc(C(=O)O)c(C)s3)cc2)n(Cc2ccc(Cl)cc2)c1=O [Compound I-2450] | 0.008 µM |
| Cc1sc(Oc2ccc(/N=c3\[nH]c(=O)n(C)c(=O)n3Cc3ccc(Cl)cc3)cc2)nc1C(=O)O [Compound I-2451] | 0.025 µM |
| O=c1[nH]/c(=N\c2ccc(Oc3ccn[nH]3)cc2)n(Cc2ccc(Cl)cc2)c(=O)n1CCCO [Compound I-2452] | 0.036 µM |
| O=c1[nH]/c(=N\c2ccc(Oc3ccn[nH]3)cc2)n(Cc2ccc(Cl)cc2)c(=O)n1C[C@H](O)CO [Compound I-2453] | 0.064 µM |
| O=c1[nH]/c(=N\c2ccc(Oc3ccn[nH]3)cc2)n(Cc2ccc(Cl)cc2)c(=O)n1CC(CO)CO [Compound I-2454] | 0.035 µM |
| CCn1c(=O)[nH]/c(=N\c2ccc(Oc3ccn[nH]3)cc2)n(Cc2ccc(Cl)cc2)c1=O [Compound I-2455] | 0.063 µM |
| Cc1cnc(Oc2ccc(/N=c3\[nH]c(=O)n(CC(O)CO)c(=O)n3Cc3ccc(Cl)cc3)cc2)s1 (stereo not shown) [Compound I-2456] | 0.008 µM |
| Cc1cnc(Oc2ccc(/N=c3\[nH]c(=O)n(CCO)c(=O)n3Cc3ccc(Cl)cc3)cc2)s1 [Compound I-2457] | 0.013 µM |
| Cc1cnc(Oc2ccc(/N=c3\[nH]c(=O)n(CC(CO)CO)c(=O)n3Cc3ccc(Cl)cc3)cc2)s1 [Compound I-2458] | 0.003 µM |
| COC(=O)[C@H](C)n1c(=O)[nH]/c(=N\c2ccc(Oc3ccon3)cc2)n(Cc2ccc(Cl)cc2)c1=O [Compound I-2459] | 0.007 µM |
| COC(=O)[C@@H](C)n1c(=O)[nH]/c(=N\c2ccc(Oc3ccon3)cc2)n(Cc2ccc(Cl)cc2)c1=O [Compound I-2460] | 0.035 µM |
| Cn1c(=O)[nH]/c(=N\c2ccc(Oc3ccnc(C(=O)O)c3)c(F)c2)n(Cc2ccc(Cl)cc2)c1=O [Compound I-2461] | 0.007 µM |
| CCn1c(=O)[nH]/c(=N\c2ccc(Oc3ccnc(C(=O)O)c3)c(F)c2)n(Cc2ccc(Cl)cc2)c1=O [Compound I-2462] | 0.007 µM |
| Cn1c(=O)[nH]/c(=N\c2ccc(Oc3cccc(C(N)=O)n3)cc2)n(C[C@H]2CC[C@H](C)CC2)c1=O [Compound I-2463] | 0.003 µM |
| Cc1ccc(Cn2c(=O)n(C)c(=O)[nH]/c2=N\c2ccc(Oc3ccc(C(N)=O)cn3)cc2)cc1 [Compound I-2464] | 0.01 µM |

From patent publication US9718790B2, “Triazine derivative and pharmaceutical composition having an analgesic activity comprising the same” (SHIONOGI & CO., LTD., priority 2010, dated 2017)
